In ChEMBL document CHEMBL1123299, “New antiarrhythmic agents. 2,2,5,5-Tetramethyl-3-pyrroline-3-carboxamides and 2,2,5,5-tetramethylpyrrolidine-3-carboxamindes” (J Med Chem, 1986):

Key:
Rattus norvegicus [1] = test: Effective dose against aconitine-induced arrhythmia after intravenal administration in anesthetized rats; assay type: functional
[2] = Acute toxicity determined after intravenal administration in mice; assay type: organism-based; details: mouse, in vivo, iv
Rattus norvegicus [3] = organism: Rattus norvegicus; test: Relative potency with reference to quinidine; assay type: functional
Rattus norvegicus [4] = test: Tested for incidence of arrhythmias in rats after a intravenal administration of 2 mg/kg expressed as no. of positive cases out of no. of tested cases (10); assay type: functional
Cavia porcellus [5] = test: Amount of ouabain needed for production of ventricular arrhythmias that causes death in guinea pig by cardiac arrest at a dose of 1 mg/kg iv given 5 min prior; assay type: functional, Cardiac ventricle
Cavia porcellus [6] = test: Amount of ouabain needed for production of ventricular fibrillation at a dose of 1 mg/kg (iv given 5 min prior) in guinea pig; assay type: functional, Cardiac ventricle
Cavia porcellus [7] = test: Amount of ouabain needed for production of ventricular extra-systoles at a dose of 1 mg/kg (iv given 5 min prior) in guinea pig; assay type: functional, Cardiac ventricle
Rattus norvegicus [8] = test: Tested for incidence of arrhythmias in rats after a intravenal administration of 1 mg/kg expressed as no. of positive cases out of no. of tested cases (10); assay type: functional
Rattus norvegicus [9] = test: Incidence of arrhythmias in rats after a intravenal administration at 4 mg/kg, expressed as no. of positive cases out of no. of tested cases (10); assay type: functional
[10] = Acute toxicity in secondary evaluation when administered intravenously (iv) against aconitine-induced arrhythmias in anesthetized rats..parenthesis indicates 95%CL; assay type: organism-based; details: rat, in vivo
Cavia porcellus [11] = test: Amount of ouabain needed for production of ventricular fibrillation at a dose of 2 mg/kg (iv given 5 min prior) in guinea pig; assay type: functional, Cardiac ventricle
Cavia porcellus [12] = test: Amount of ouabain needed for production of ventricular arrhythmias that causes death in guinea pig by cardiac arrest at a dose of 2 mg/kg iv given 5 min prior; assay type: functional, Cardiac ventricle
Cavia porcellus [13] = test: Amount of ouabain needed for production of ventricular extra-systoles at a dose of 2 mg/kg (iv given 5 min prior) in guinea pig; assay type: functional, Cardiac ventricle

SMILES | ED150 (Rattus norvegicus [1]) [mg/kg] | LD50 [2] [mg/kg] | Relative potency (Rattus norvegicus [3]) | No. of positive cases (Rattus norvegicus [4]) | No. of positive cases (Rattus norvegicus [9]) | other results
C=CCOc1cccc(CNCCCNC(=O)C2=CC(C)(C)NC2(C)C)c1 | 2.7 | 34 | 4.4 | 7 |  | 
C=CCc1cc(C)ccc1OCC(=O)NCCCNC(=O)C1=CC(C)(C)NC1(C)C |  |  | 4.9 | 8 |  | 
C=CCc1cc(C)ccc1OCC(=O)NCCNC(=O)C1=CC(C)(C)NC1(C)C |  | 19 |  | 3 |  | 
CCc1nc2ccccc2c(=O)n1CCCNC(=O)C1=CC(C)(C)NC1(C)C |  |  | 7 | 10 |  | Average dose (Cavia porcellus [5]): 316 µg/kg; Average dose (Cavia porcellus [6]): 298.2 µg/kg; Average dose (Cavia porcellus [7]): 211.5 µg/kg
CC1(C)CC(C(=O)NCCCNCc2ccccc2OCc2ccccc2)C(C)(C)N1 (stereo not given) | 0.52 | 13 | 22.9 |  |  | No. of positive cases (Rattus norvegicus [8]): 10
Cc1cccc(C)c1NC(=O)C1=CC(C)(C)NC1(C)C | 2.1 | 6 | 5.7 |  |  | No. of positive cases (Rattus norvegicus [8]): 7
CC1(C)C=C(C(=O)NCCCNCc2cccc(Oc3ccccc3)c2)C(C)(C)N1 | 0.96 | 11 | 12.4 | 10 |  | 
COc1cc(CNCCCNC(=O)C2=CC(C)(C)NC2(C)C)ccc1O | 0.47 | 8.7 | 25.3 | 10 |  | 
CC1(C)C=C(C(=O)NCCCNCc2ccccc2OCc2ccccc2)C(C)(C)N1 | 0.6 | 9 | 19.8 | 10 |  | 
Cc1cccc(C)c1NC(=O)C(NC(=O)C1=CC(C)(C)NC1(C)C)c1ccccc1 (stereo not given) | 0.78 | 7.6 | 15.3 | 10 |  | 
Cc1cccc(C)c1NC(=O)CNC(=O)C1=CC(C)(C)N([O])C1(C)C |  |  |  |  | 0 | LD50 [10]: 136 mg/kg
CC1(C)C=C(C(=O)NCCCNCc2cccs2)C(C)(C)N1 | 5.3 | 65 | 2.2 |  | 7 | 
Cc1cccc(C)c1NC(=O)CNC(=O)C1=CC(C)(C)NC1(C)C | 2.4 | 53 | 4.9 |  | 10 | Average dose (Cavia porcellus [11]): 284.2 µg/kg; Average dose (Cavia porcellus [12]): 331.4 µg/kg; Average dose (Cavia porcellus [13]): 214.2 µg/kg
CC1(C)C=C(C(=O)NCCCNCc2ccc(OCc3ccccc3)cc2)C(C)(C)N1 | 1.3 | 20 | 9.2 | 8 |  | 
COc1ccc(CNCCCNC(=O)C2=CC(C)(C)NC2(C)C)c(OC)c1 | 1.7 | 16 | 7 |  | 9 | 
COc1cc(OCc2ccccc2)ccc1CNCCCNC(=O)C1=CC(C)(C)NC1(C)C | 0.69 | 13 | 17.2 |  | 10 | 
CC1(C)C=C(C(=O)NCCCNC(=O)COc2ccccc2)C(C)(C)N1 | 2.6 | 49 | 4.6 |  | 10 | 
CC1(C)C=C(C(=O)NCC(O)CNCc2cccs2)C(C)(C)N1 (stereo not given) | 7.6 | 49 | 1.6 |  | 8 | 
COc1cccc(CNCCCNC(=O)C2=CC(C)(C)NC2(C)C)c1O | 3.4 | 26 | 3.5 |  | 10 | 
C=CCOc1ccccc1CNCCCNC(=O)C1CC(C)(C)NC1(C)C (stereo not given) | 2.1 | 13 | 5.7 | 10 |  | 
Cc1cccc(C)c1NC(=O)C(C)NC(=O)C1=CC(C)(C)N([O])C1(C)C (stereo not given) |  |  |  |  | 0 | LD50 [10]: 165 mg/kg
CC1(C)C=C(C(=O)NCCCNCc2ccc(Oc3ccccc3)cc2)C(C)(C)N1 | 1.3 | 23 | 9.2 |  | 10 | 
CC1(C)C=C(C(=O)NCCCNCc2cccc(OCc3ccccc3)c2)C(C)(C)N1 | 0.74 | 7 | 16.1 | 10 |  | 

SMILES | ED150 (Rattus norvegicus [1]) [mg/kg] | LD50 [2] [mg/kg] | Relative potency (Rattus norvegicus [3]) | No. of positive cases (Rattus norvegicus [4]) | No. of positive cases (Rattus norvegicus [9]) | other results
C/C=C/c1ccc(OCC(=O)NCC(C)(C)CNC(=O)C2=CC(C)(C)NC2(C)C)c(OC)c1 | 3.9 | 31 | 3.1 |  | 6 | 
CC1(C)C=C(C(=O)NCCCNCc2ccccc2OCC(N)=O)C(C)(C)N1 |  | 10 |  | 1 |  | 
COc1cc(CNCCCNC(=O)C2=CC(C)(C)NC2(C)C)cc(OC)c1OC | 3.8 | 22 | 3.1 |  | 9 | 
CC1(C)C=C(C(=O)NCCNCc2ccc(Cl)cc2)C(C)(C)N1 | 5.4 | 82 | 2.2 |  | 5 | 
Cc1cccc(C)c1OCC(C)NC(=O)C1=CC(C)(C)N([O])C1(C)C (stereo not given) |  |  |  |  | 0 | LD50 [10]: 54 mg/kg
C/C=C/c1ccc(OCC(=O)NCCCNC(=O)C2=CC(C)(C)NC2(C)C)c(OC)c1 |  | 30 | 5.4 |  | 7 | Average dose (Cavia porcellus [11]): 250.9 µg/kg; Average dose (Cavia porcellus [12]): 284.7 µg/kg; Average dose (Cavia porcellus [13]): 201.1 µg/kg
Cc1cccc(C)c1NC(=O)C(C)NCCCNC(=O)C1CC(C)(C)NC1(C)C (stereo not given) | 2.3 | 39 | 5.1 |  | 10 | 
CC1(C)C=C(C(=O)NCCCN2C(=O)c3ccccc3C2=O)C(C)(C)N1 |  |  | 4.6 | 10 |  | Average dose (Cavia porcellus [11]): 345.5 µg/kg; Average dose (Cavia porcellus [12]): 382.5 µg/kg; Average dose (Cavia porcellus [13]): 236.9 µg/kg
C=CCOc1c(CNCCCNC(=O)C2=CC(C)(C)NC2(C)C)cccc1OC | 1.7 | 15 | 7 |  | 10 | 
CC1(C)CC(C(=O)NCCCNCc2ccccc2Cl)C(C)(C)N1 (stereo not given) | 2.4 | 31 | 4.9 |  | 7 | 
C=C[C@H]1CN2CC[C@H]1C[C@@H]2[C@@H](O)c1ccnc2ccc(OC)cc12 [QUINIDINE] |  |  |  |  |  | Average dose (Cavia porcellus [11]): 291.1 µg/kg; Average dose (Cavia porcellus [12]): 313.9 µg/kg; Average dose (Cavia porcellus [13]): 195.4 µg/kg
Cc1cccc(C)c1NC(=O)CNC(=O)C1CC(C)(C)NC1(C)C (stereo not given) | 0.84 | 40 | 14.2 |  | 10 | Average dose (Cavia porcellus [11]): 290.9 µg/kg; Average dose (Cavia porcellus [12]): 319.9 µg/kg; Average dose (Cavia porcellus [13]): 196.9 µg/kg
C=CCc1ccc(OC(C)C(=O)NCCNC(=O)C2=CC(C)(C)NC2(C)C)c(OC)c1 (stereo not given) | 2.8 | 9.3 | 4.3 | 7 |  | 
Cc1cccc(C)c1NC(=O)CNCCCNC(=O)C1=CC(C)(C)NC1(C)C | 0.37 | 7.4 | 32.2 |  |  | No. of positive cases (Rattus norvegicus [8]): 10
C=CCc1ccc(OC(C)C(=O)NCCCNC(=O)C2=CC(C)(C)NC2(C)C)c(OC)c1 (stereo not given) | 0.8 | 7.6 | 14.9 |  |  | No. of positive cases (Rattus norvegicus [8]): 10
C=CCc1ccc(OCC(=O)NCCNC(=O)C2=CC(C)(C)NC2(C)C)c(OC)c1 | 6.3 | 11 | 1.9 |  | 7 | 
COc1cccc(CNCCCNC(=O)C2=CC(C)(C)NC2(C)C)c1OCc1ccccc1 | 0.21 | 6.2 | 56.7 |  | 10 | 
C=CCOc1ccc(CNCCCNC(=O)C2=CC(C)(C)NC2(C)C)cc1 | 2.9 | 28 | 4.1 |  | 6 | 
CCN(CC)C(=O)COc1c(CNCCCNC(=O)C2=CC(C)(C)NC2(C)C)cccc1OC |  | 2.1 |  |  |  | No. of positive cases (Rattus norvegicus [8]): 1
Cc1cccc(C)c1NC(=O)C(C)NC(=O)C1=CC(C)(C)NC1(C)C (stereo not given) | 1.9 | 15 | 6.3 |  | 10 | Average dose (Cavia porcellus [11]): 325.3 µg/kg; Average dose (Cavia porcellus [12]): 361 µg/kg; Average dose (Cavia porcellus [13]): 208.9 µg/kg
CC1(C)C=C(C(=O)NCCCNCc2cccc(O)c2)C(C)(C)N1.Cl | 8.5 | 13 | 1.4 |  | 4 | 
COc1ccccc1CNCCCNC(=O)C1=CC(C)(C)NC1(C)C.Cl | 1.6 | 7.9 | 7.4 |  | 10 | 
C=CCOc1ccccc1CNCCCNC(=O)C1=CC(C)(C)NC1(C)C | 1.9 | 18 | 6.3 | 10 |  | Average dose (Cavia porcellus [5]): 306.1 µg/kg; Average dose (Cavia porcellus [6]): 280.2 µg/kg; Average dose (Cavia porcellus [7]): 224.3 µg/kg
